Reference: patent US8518959B2, “Quinoxaline derivatives as antitumor agents” (Prolexys Pharmaceuticals, Inc., priority 2005, dated 2013)

Key:
[1] = tested on: BJ-TERT/LT/ST/RAS^V12 cells; assay: Nuclear morphology assay; format: cell-based, human; details: fluorescence microscopy, 18 hours
From the text: Applicants sought to characterize the type of cell death induced by CPT and erastin in tumorigenic BJ-TERT/LT/ST/RAS^V12 cells. […] To determine whether erastin or CPT induces apoptosis in their system, Applicants monitored the nuclear morphology of CPT- and erastin-treated tumorigenic cells using fluorescence microscopy. […] Since nuclear morphological change is required of apoptotic cells, Applicants conclude that cell death induced by erastin is non-apoptotic. […] Additionally, nuclei remained intact in erastin-treated tumor cells (FIG. 9).
200,000 tumorigenic BJ-TERT/LT/ST/RAS^V12 cells were seeded in 2 mL on glass coverslips in each well of a six-well dish, treated with nothing (NT), 9 μM erastin or 1.1 μM camptothecin (CPT) in growth medium for 18 hours while incubating at 37° C. with 5% CO2. Nuclei were stained with 25 μg/mL Hoechst 33342 (Molecular Probes) and viewed using an oil immersion 100× objective on a fluorescence microscope.

[2] = tested on: PANC-1 xenografts; assay: PANC-1 tumor treatment study; format: in vivo, mouse; details: nude mice, once a day for five consecutive days
Protocol: The experimental plan for the PANC-1 study was essentially identical to that of the HT-1080 study outlined above in Example 10 with the following exceptions: approximately 3040 mg fragment of passaged PANC-1 tumor tissue was implanted subcutaneously in the right flank of an immunodeficient nude mouse. Tumor growth was monitored daily and when the tumors reached approximately 100 mm^3, animals harboring similarly sized tumors were group matched and compound dosing was initiated. Administration of compound 5 occurred once a day for five consecutive days at the doses listed below. In the PANC-1 xenografts, gemcitabine, administered at the maximum tolerated dose for the model, was used as a control. The gemcitabine regimen was 180 mg/kg […] on every third day over a period of 9 days.

[3] = tested on: HT-1080 xenografts; assay: HT-1080 tumor treatment study; format: in vivo, mouse; details: nude mice, 50 or 100 mg/Kg QD×5 days IP
Protocol: • Nude Balb/c (Nu/Nu strain, Charles River Laboratories), female, 5-6 week old (˜20 g average body weight). Formulation of Test Articles:
Both compounds were formulated in an identical manner. For the 100 mg/kg dose level, each compound was delivered at a concentration of 10.0 mg/ml, in an injection volume of 0.2 ml. For the 50 mg/kg dose level, each compound was delivered at a concentration of 5.0 mg/ml, in an injection volume of 0.2 ml. For both dose levels, the vehicle contained 0.025% Tween-80, 0.01% benzyl alcohol, 35 mM acetic acid (HOAc), 100 mM potassium phosphate buffer, and 32 mM sucrose, pH 6.5.
• A: PRLX compound 6@100 mg/Kg, QD×5 days, IP, n=8 • B: PRLX compound 6@50 mg/Kg, QD×5 days, IP, n=8 • C: PRLX compound 5@100 mg/Kg, QD×5 days, IP, n=8 • D: PRLX compound 5@50 mg/Kg, QD×5 days, IP, n=8 • E: Vehicle Control, QD×5 days, IP, n=8 • F: Untreated Control, n=8 Treatment Schedule: […]
Starting on Day 1, all animals were weighed, and tumor dimensions (length (L) and width (W)) were measured, every other day. […]
The resulting tumor volume values were averaged for each study group for each time point, and were then plotted against time. Variance was expressed as standard error of the mean (±SEM).

[4] = tested on: BJ-TERT/LT/ST/RAS^V12 tumorigenic cells; assay: Calcein AM viability assay, dilution series; format: cell-based, human; details: ST- and RAS^V12-dependent
From the text: (§1) Described here is work carried out to identify compounds with increased potency or activity in the presence of hTERT, LT, ST, E6, E7 or RAS^V12. Although the work described herein made use of hTERT, LT, ST, E6, E7 and RAS^V12 as transforming genes, future studies can make use of a wide variety of cancer-associated alleles using this methodology in order to define the signaling networks that involve many oncogenes and tumor suppressors. Engineered cell lines with these genetic elements were used to screen 23,550 compounds, including 20,000 compounds from a combinatorial library, 1,990 compounds from the National Cancer Institute diversity collection, and 1,540 biologically active known compounds that were selected and purchased by Applicant and formatted into a screenable collection. […] Cell viability was measured using the dye calcein acetoxymethyl ester (calcein AM) (Wang et al., 1993, Hum. Immunol. 37, 264-270), which is a non-fluorescent compound that freely diffuses into cells. […]
(§2) Calcein acetoxylmethyl ester (AM) is a cell membrane-permeable, non-fluorescent compound that is cleaved by intracellular esterases to form the anionic, cell-impermeable, fluorescent compound calcein. […] Total fluorescence intensity in each well was recorded on a Packard Fusion platereader, and converted to a percent inhibition of signal by subtracting the instrument background and dividing by the average signal obtained when cells were not treated with any compound. […]
(§3) Mean RFU (relative fluorescence units) for untreated cells was calculated by averaging columns 1, 2, and 23 (wells with cells but lacking compounds). The calcein background was calculated by averaging column 24 (wells with calcein, but lacking cells). Percentage inhibition of each well was calculated as [1−(RFU−calcein control)/(untreated cell−calcein control)*100]. […]

[5] = tested on: BJ primary cells; assay: Calcein AM viability assay, dilution series; format: cell-based, human
From the text: as §1, §2, §3

## CC[C@@]1(O)C(=O)OCc2c1cc1n(c2=O)Cc2cc3ccccc3nc2-1 [Camptothecin]
[1]
  Type of cell death / nuclear morphology: karyorhexis and margination of chromatin were clearly visible

## CCOc1ccccc1-n1c(CN2CCNCC2)nc2ccccc2c1=O [Compound 5, 3-(2-ethoxyphenyl)-2-(piperazin-1-ylmethyl)quinazolin-4(3H)-one]
[2]
  Antitumor effect in PANC-1 xenografts: induction of tumor regression
[3]
  Antitumor effect in HT-1080 xenografts: induction of robust tumor regression

## CCOc1ccccc1-n1c(C(C)N2CCNCC2)nc2ccccc2c1=O (centres unmarked) [Compound 6]
[2]
  Antitumor effect in PANC-1 xenografts: induction of tumor growth inhibition
[3]
  Antitumor effect in HT-1080 xenografts: induction of tumor growth inhibition

## CCOc1ccccc1-n1c(C(C)N2CCN(C(=O)COc3ccc(Cl)cc3)CC2)nc2ccccc2c1=O (centres unmarked) [Erastin]
[4]
  Time to irreversible cell death: 12 to 24 h

## C=C1[C@@H](O)[C@@H]2O[C@]3(CC[C@H](/C=C/[C@@H](C)[C@@H]4CC(C)=C[C@@]5(O[C@H](C[C@@](C)(O)C(=O)O)CC[C@H]5O)O4)O3)CC[C@H]2O[C@@H]1[C@@H](O)C[C@H](C)[C@H]1O[C@@]2(CCCCO2)CC[C@H]1C [okadaic acid]
[5]; okadaic acid 3.4 nM with camptothecin
  Sensitization of BJ primary cells to camptothecin: renders BJ cells sensitive to camptothecin
[5]; okadaic acid alone at 3.4 nM
  Effect on calcein AM viability staining of BJ cells: no effect on its own
